The values that follow come from US7244586B2, “DNA molecules encoding ligand-gated ion channels from Drosophila melanogaster” (Merck & Co., Inc., priority 2000, dated 2007).

In the assay the test system is DmLGIC AC15. The following applies: AC15 clone expressed in Xenopus oocyte. As for the experimental part:
Full length cDNA clones corresponding to the selected RT-PCR sequences were used as template for synthesis of in vitro transcribed RNA (Ambion Inc.). The capped cRNA transcripts are synthesized using appropriate oligonucleotide primers and the mMESSAGE mMACHINE in vitro RNA transcription kit from Ambion. Xenopus laevis oocytes were prepared and injected using standard methods as described (Arena et al., 1991, Mol. Pharmacol. 40: 368–374; Arena et al, 1992, Mol. Brain Res. 15: 339–348). Adult female Xenopus laevis were anesthetized with 0.17% tricaine methanesulfonate and the ovaries were surgically removed and placed in a dish consisting of (mM): NaCl 82.5, KCl 2, MgCl2 1, CaCl2 1.8, HEPES 5, adjusted to pH 7.5 with NaOH (OR-2). Ovarian lobes were broken open, rinsed several times, and gently shaken in OR-2 containing 0.2% collagenase (Sigma, Type 1A) for 2–5 hours. When approximately 50% of the follicular layers were removed, Stage V and VI oocytes were selected and placed in media consisting of (mM): NaCl 86, KCl 2, MgCl2 1, CaCl2 1.8, HEPES 5, Na pyruvate 2.5, theophylline 0.5, gentamicin 0.1 adjusted to pH 7.5 with NaOH (ND-96) for 24–48 hours before injection. For most experiments, oocytes were injected with 10 ng of cRNA in 50 nl of RNase free water. Control oocytes were injected with 50 nl of water. […]

For the molecule `NCCc1c[nH]cn1` [histamine], the “response of functional single channel protein to addition of histamine” value is “responds to the addition of histamine”.
